How the values were obtained:
Cathepsin K = Cathepsin K (Homo sapiens (Human), UniProt P43235); assay: Cathepsin K inhibition assay; type: biochemical; conditions: Table 4; read-out: IC50 (nM) CatK
Description: (§1) The capacities of compounds of the present invention to inhibit the activity of cathepsins B, H, K, L, and S were measured in similar assays. Boc-Leu-Arg-Arg-AMC (20 μM) in sodium acetate buffer (50 mM, pH 5.5) containing DTT (1 mM) and EDTA (2 mM) was used for the Cathepsin B assay. L-Arg-AMC (20 μM) in sodium acetate buffer (50 mM, pH 5.5) containing DTT (1 mM) and EDTA (2 mM) was used for the Cathepsin H assay. Z-Phe-Arg-AMC (10 μM) in HEPES buffer (50 mM, pH 7.4) containing DTT (2.5 mM) and EDTA (1 mM) was used for the Cathepsin K assay. Z-Phe-Arg-AMC (20 μM) in sodium acetate buffer (50 mM, pH 5.5) containing DTT (1 mM) and EDTA (2 mM) was used for the Cathepsin L assay. Z-Leu-Arg-AMC (10 μM) in sodium acetate buffer (25 mM, pH 4.5) containing DTT (2.5 mM) and NaCl (50 mM) was used for the Cathepsin S assay. The capacities of the compounds to inhibit the activity of cathepsins F, V, and Z were also measured.
(§2) Further assays to measure the inhibitory activity of compounds of the present invention against Kgp and cathepsins B, H, K, L, and S were conducted as described in Example 66. The capacities of the compounds to inhibit the activity of cathepsins F, V, and Z were also measured.

Cathepsin L = Cathepsin L (Homo sapiens (Human), UniProt P07711); assay: Cathepsin L inhibition assay; type: biochemical; conditions: Table 4; read-out: IC50 (nM) CatL
Description: as §1, §2

cathepsin F = cathepsin F (Homo sapiens (Human), UniProt Q9UBX1); assay: Cathepsin F inhibition assay; type: biochemical; conditions: Table 4; read-out: IC50 (nM) CatF
Description: as §1, §2

cathepsin Z = cathepsin Z (Homo sapiens (Human), UniProt Q9UBR2); assay: Cathepsin Z inhibition assay; type: biochemical; conditions: Table 4; read-out: IC50 (nM) CatZ
Description: as §1, §2

[1] = Pharmacokinetics in male CD-1 mice dosed p.o.; type: in vivo; conditions: p.o. 10 mg/kg, compared to reference compound 73
P. gingivalis W83 [2] = assay: Mouse periodontitis model, P. gingivalis DNA in brain tissue (qPCR); type: in vivo, BALB/C mice; conditions: between week 5 and 10
Description: (§3) At the beginning of the study, eight week old BALB/C female mice received antibiotic in drinking water (sulfamethoxazolum 0.87 mg/mL, trimethoprimum 0.17 mg/mL) for 10 days to reduce microbiome protection from experiment infection. Experimental periodontitis was induced by ligature placement followed by multiple exposures to P. gingivalis. During the ligature procedure mice were anesthetized with an intraperitoneal injection of ketamine (200 mg/kg) and xylazine (10 mg/kg), and eyes were lubricated with ointment (Puralube Vet; Pharmaderm, Melville, N.Y.). Next, a 5-0 silk ligature (Roboz Surgical Instrument Co.) was tied around the upper maxillary left and right second molar. Sutures were applied and tied gently to prevent damage to the periodontal tissue.
(§4) Mice (n=8-10/arm) were infected for 6 weeks every other day. For infection, […]. of bacteria solution were applied topically to the buccal surface of the maxillae. For preparation of the bacteria, P. gingivalis W83 (ATCC, Rockville, Md.) was streaked on Tryptic Soy Broth (TSB) agar plates (5% sheep blood, supplemented with 0.5 mg/mL L-cysteine, 5 μg/mL hemin, and 0.5 μg/mL vitamin K) and grown under anaerobic conditions at 37° C. for 5-7 days. Samples were then inoculated in TSB with hemin, vitamin K and L-cysteine (TSB-HKC) until mid-log phase (OD600=0.5-0.7). Bacteria were washed in PBS and prepared at final concentration of 1×10^10 cells/mL in PBS+2% methylcellulose (CMC).
Vehicle-treated animals received PBS only. At 5 weeks, a subgroup of animals (n=16) were euthanized to gather baseline measurements before the start of treatment. After 10 weeks, mice were euthanized and the brain, serum, and maxillary tissues were harvested and frozen in liquid nitrogen.
DNA was extracted from brain tissue using the DNeasyBLOOD & TISSUE KIT (Qiagen, Germany) according to manufacturer's protocol. […] The number of copies of the P. gingivalis genome was calculated by matching Cq values with a standard curve prepared from serial dilutions of cultured P. gingivalis W83 (WT). […]

P. gingivalis W83 [3] = assay: Mouse periodontitis model, GAD67 positive interneurons in the dentate gyrus; type: in vivo, BALB/C mice; conditions: 10 weeks, infected treated mice vs mock-infected
Description: as §3
as §4, with “Samples were then inoculated in TSB with hemin, vitamin K and L-cysteine (TSB-HKC) until mid-log phase (OD600=0.5-0.7). Bacteria were washed in PBS and prepared at final concentration of 1×10^10 cells/mL in PBS+2% methylcellulose (CMC).” left out
Quantification of GAD67 positive interneurons was performed with CellSens 1.5. […] The number of cells on every 40th section through the hippocampus was counted. […]

P. gingivalis = assay: Related studies: brain abeta42 and neuroinflammation; type: in vivo

Sequence of cathepsin Z (Q9UBR2 62-303): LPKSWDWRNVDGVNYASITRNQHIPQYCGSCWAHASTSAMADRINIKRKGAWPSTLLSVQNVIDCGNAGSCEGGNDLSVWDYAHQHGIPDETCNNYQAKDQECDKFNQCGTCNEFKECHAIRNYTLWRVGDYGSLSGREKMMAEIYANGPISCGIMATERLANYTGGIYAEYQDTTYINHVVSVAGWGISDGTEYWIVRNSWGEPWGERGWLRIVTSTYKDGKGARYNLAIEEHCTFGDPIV
Sequence of cathepsin F (Q9UBX1 271-484): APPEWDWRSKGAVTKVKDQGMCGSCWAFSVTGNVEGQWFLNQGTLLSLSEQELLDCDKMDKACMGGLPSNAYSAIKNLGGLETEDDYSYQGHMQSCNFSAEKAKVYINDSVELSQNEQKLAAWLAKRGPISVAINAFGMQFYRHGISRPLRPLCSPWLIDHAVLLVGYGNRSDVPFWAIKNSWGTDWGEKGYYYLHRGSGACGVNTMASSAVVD
Sequence of Cathepsin L (P07711 114-333, species assumed): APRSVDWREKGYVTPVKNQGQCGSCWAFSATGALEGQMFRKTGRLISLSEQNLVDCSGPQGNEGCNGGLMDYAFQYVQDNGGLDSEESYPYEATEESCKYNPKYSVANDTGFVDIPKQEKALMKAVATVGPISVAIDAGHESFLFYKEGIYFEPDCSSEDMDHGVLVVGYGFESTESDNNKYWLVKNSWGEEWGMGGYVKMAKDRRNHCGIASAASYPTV
Sequence of Cathepsin K (P43235 115-329, species assumed): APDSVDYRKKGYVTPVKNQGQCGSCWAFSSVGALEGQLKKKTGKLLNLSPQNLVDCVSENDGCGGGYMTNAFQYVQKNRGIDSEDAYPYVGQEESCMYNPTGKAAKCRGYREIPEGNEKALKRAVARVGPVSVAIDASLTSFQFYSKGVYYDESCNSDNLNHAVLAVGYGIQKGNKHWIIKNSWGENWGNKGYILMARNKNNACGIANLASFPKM

NCCCC[C@H](NC(=O)C1CCCC1)C(=O)COc1c(F)ccc(F)c1F [Compound 1, (S)—N-(7-amino-2-oxo-1-(2,3,6-trifluorophenoxy)heptan-3-yl)cyclopentanecarboxamide]
IC50 (Cathepsin K): 117 nM
IC50 (Cathepsin L): 4680 nM
IC50 (cathepsin F): 6100 nM
IC50 (cathepsin Z): > 10000 nM
oral availability [1]: improved oral availability
plasma concentrations [1]: increased plasma concentrations
reduction in P. gingivalis DNA copy number in brain tissue (P. gingivalis W83 [2]; 3 mg/kg): ~50%
reduction in P. gingivalis DNA copy number in brain tissue (P. gingivalis W83 [2]; 10 mg/kg): ~50%
reduction in P. gingivalis DNA copy number in brain tissue (P. gingivalis W83 [2]; 30 mg/kg): ~80%
GAD67 positive interneurons in the dentate gyrus (P. gingivalis W83 [3]): at the same level as the GAD67^+ cells in the mock-infected mice
induction of brain abeta42 (P. gingivalis): reduce induction
neuroinflammation (P. gingivalis): reduce induction

Source: US10730826B2, “Ketone inhibitors of lysine gingipain” (CORTEXYME, INC., priority 2016, dated 2020)
